Measurements published in patent US8420776B2, “Ube2G2 binding domain in the ubiquitin ligase gp78 and methods of use thereof” (The United States of America, as Represented by the …, priority 2004, dated 2013).
Entries after “also recorded” stand apart in the source; their conditions may differ. Ends that are not written are not given here. Peptide text beside a SMILES is read from it. * marks the point of attachment. Cbz = O=C(OCc1ccccc1)*

Assays:
[1] = target: T1, Ube2G2/MmUbc7 (Mus musculus, UniProt P60605); test: GST pull-down binding of in vitro translated 35S-Met Ube2G2/MmUbc7; design: species or system human; conditions: GST fusion pull-down; 35S-Met labeled E2
T1 construct: made in house; host or cells: coupled in vitro transcription/translation in rabbit reticulocyte lysate or wheat germ
T1 sequence (P60605 1-165): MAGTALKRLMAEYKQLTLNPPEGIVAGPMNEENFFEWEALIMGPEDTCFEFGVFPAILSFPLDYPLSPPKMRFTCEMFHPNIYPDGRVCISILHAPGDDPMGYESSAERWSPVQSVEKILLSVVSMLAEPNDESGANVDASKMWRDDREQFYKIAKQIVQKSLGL
Procedure: GST fusions were purified from E. Coli. Binding was carried out using equi-molar amount of fusion proteins measured by Commassie blue staining. Generally, 20 picomoles/sample were used. In vitro translated E2 was generated by coupled transcription and translation using 35S methionine in either wheat germ or rabbit reticulocyte lysate. […] Beads were washed with binding buffer and resolved by SDS-PAGE under reducing conditions. Analysis was by Storm PhosphoImager (Applied Biosystems, Foster City, Calif.). Direct binding assays used wild type His6-MmUbc7 (His6-Ube2G2) and Glutathione-sepharose bound GST fusions. Beadbound GST protein was incubated with 100 ng purified His6-MmUbc7 in binding buffer and washed and eluted as above. After transfer to Hybond-P (Amersham Biosciences) binding was assessed with anti-His6 followed by Enhanced Chemiluminescence ECL; Pierce).
The E2 enzymes were in vitro translated using wheat germ.
GST fusion proteins encoding the regions indicated in FIGS. 3A-3C were evaluated for the ability to bind to Ube2G2/MmUbc7 that had been in vitro transcribed and translated in rabbit reticulocyte lysate. gp78C represents the entire C-terminal cytoplasmic domain of gp78 (amino acid residues 309-643 of SEQ ID NO:2).

[2] = target: T2, Myc-Ube2G2 (Mus musculus, UniProt P60605); test: Co-immunoprecipitation with co-expressed Myc-Ube2G2 in cells; format: cell-based; conditions: anti-Myc IP, anti-GFP IB
T2 construct: expressed in transfected cells; host or cells: HEK 293T
T2 sequence (P60605 1-165): T1 sequence (P60605 1-165)
Procedure: (§1) Transfections of HT1080, NIH 3T3 and HEK 293T cells were carried out ˜24 hr after plating using Polyfect (Qiagen, Valencia, Calif.) and cells harvested after ˜48 hr. J558 cells were transfected by electroporation using Bio-rad GENE pulser II at settings of 250 v, 950uF. Vector without insert was used to equalize total plasmid. In most experiments 0.15 μg of pEGFP-C1 served as an internal control. For experiments not involving immunoprecipitation, 6×10^5 cells were plated in 6 well plates and cell lysis was with Mammalian Protein Extraction Reagent (Pierce). For immunoprecipitation, 2.4×10^6 cells were seeded in 100 mm dishes and cells were lysed in RIPA buffer (1×PBS, 1% Nonidet P40. 0.5% sodium deoxycholate, 0.1% SDS). Lysis buffers were supplemented with Protease Inhibitor Cocktail (Sigma) and 10 mM iodoacetamide. Supernatants were analyzed after a 10,000×g centrifugation using standard techniques for immunoprecipitation, SDS-PAGE, immunoblotting and ECL. Treatment of cells with MG132 (Sigma) was at 50 μM for eight hr. Cycloheximnide was used at 50 μg/ml. All cells were collected at the end of the six hr chase.
FIG. 5 depicts the results of immunoprecipitation of Ube2G2 (MmUbc7) from HEK 293T cells co-transfected with a plasmid encoding myc-tagged MmUbc7/Ube2G2 together with s plasmid encoding various forms of gp78. […]

[3] = system: ERAD substrate CD3-δ; test: CD3-δ level in co-transfected cells by immunoblotting; format: cell-based; conditions: for effect on CD3-δ level (stabilization): co-transfection with CD3-δ, immunoblot
Procedure: as §1
FIG. 7 depicts the stabilization of CD3-δ protein in cells transfected with the G2BD, but not with the G2BD with amino acids 579-584 (of SEQ ID NO:2) mutated. HEK 293T cells were transfected with the ERAD substrate CD3-δ along with the indicated GFP fusions of gp78. The left and right sides are two separate experiments.
(§2) To test this, GFP fusions of either a minimal E2 binding domain (GFP-574-611) or a more extended region that includes the C-terminus of gp78 (GFP-574-643) were evaluated (FIG. 21A). […] To assess this further, the C-terminal region of gp78 was fused to the eight amino acid Flag tag. […] Mdm2 is a RING finger E3 for both itself and p53 that is neither an ERAD substrate nor known to utilize Ube2G2 as an E2. […] To establish with certainty that the effect observed with expression of the Ube2G2 binding site is a consequence of binding endogenous E2, and not due to other unanticipated effects, cells were co-transfected with increasing amounts of Ube2G2 (FIG. 21C, lanes 3 and 4). […] These findings clearly establish that the isolated E2 binding site has the potential to markedly alter ERAD of CD3-δ. To ensure the effect observed was not peculiar to one substrate, TCR-α was evaluated (FIG. 21D).

[4] = system: ERAD substrate TCR-α; test: TCR-α level in co-transfected cells; format: cell-based; conditions: co-transfection with TCR-α
Procedure: as §1
FIG. 9 depicts the stabilization of endogenous TCRα by the G2BD. TCR-α is a subunit of the T cell antigent receptor and an ERAD substrate. TCR-α was stabilized by the region implicated in Ube2G2 binding.
as §2

[5] = system: Mdm2; test: Mdm2 level in co-transfected cells; format: cell-based; conditions: cells transfected with CD3-δ and Mdm2
Procedure: as §1
To test this, GFP fusions of either a minimal E2 binding domain (GFP-574-611) or a more extended region that includes the C-terminus of gp78 (GFP-574-643) were evaluated (FIG. 21A). […] To ensure the effect observed was not peculiar to one substrate, TCR-α was evaluated (FIG. 21D).

[6] = system: gp78; test: gp78 level in transfected cells by immunoblotting; format: cell-based
Procedure: as §1, with “All cells were collected at the end of the six hr chase.” left out
gp78 is degraded in a proteasome-dependent manner, and deletion of the entire cytoplasmic domain results in its stabilization. […] To determine the significance of the RING finger, Cue domain and Ube2G2 binding site on gp78 stability, mutations of each were evaluated within full-length gp78. […]

[7] = target: T3, lysine 48-linked (K48) tetra-ubiquitin (Homo sapiens, UniProt P0CG47); test: Tetra-ubiquitin binding to GST fusions; conditions: anti-ubiquitin immunoblot
T3 construct: 1 μg K48 tetra-ubiquitin produced as described (Piotrowski et al., 1997); made in house
Procedure: GST fusions were purified from E. Coli. Binding was carried out using equi-molar amount of fusion proteins measured by Commassie blue staining. Generally, 20 picomoles/sample were used. In vitro translated E2 was generated by coupled transcription and translation using 35S methionine in either wheat germ or rabbit reticulocyte lysate. Binding assays using in vitro translated E2 was carried out by incubating GST protein pre-bound to Glutathione-sepharose 4B with […] of ^35S-methionine labeled E2 in binding buffer (25 mM Tris-HCl, pH 7.4; 50 mM NaCl, 5 mM DTT; and 0.5% NP-40) overnight at 4° C. Beads were washed with binding buffer and resolved by SDS-PAGE under reducing conditions. Analysis was by Storm PhosphoImager (Applied Biosystems, Foster City, Calif.). Direct binding assays used wild type His6-MmUbc7 (His6-Ube2G2) and Glutathione-sepharose bound GST fusions. Beadbound GST protein was incubated with 100 ng purified His6-MmUbc7 in binding buffer and washed and eluted as above. After transfer to Hybond-P (Amersham Biosciences) binding was assessed with anti-His6 followed by Enhanced Chemiluminescence ECL; Pierce). Ubiquitin binding studies were performed with binding and washing as above using 1 μg K48 tetra-ubiquitin produced as described (Piotrowski et al., 1997). Detection was by anti-ubiquitin immunoblotting.

## 574-608: GST fusion of amino acids 574-608 of gp78 (SEQ ID NO:2) (SADERQRMLVQRKDELLQQARKRFLNKSSEDDAAS; listed as Homo sapiens)
[1]
  binding to in vitro translated Ube2G2/MmUbc7: sufficient for binding to Ube2G2; also recorded: bound in vitro translated Ube2G2 comparably to the complete gp78 C-terminal tail

## 579-600: GFP fusion of amino acids 579-600 of SEQ ID NO:2 (QRMLVQRKDELLQQARKRFLNK; listed as Homo sapiens)
[2]
  binding of GFP fusion to co-expressed Myc-Ube2G2 in cells: sufficient to bind Ube2G2 in cells

## GFP-574-611E2-m2: GFP fusion of gp78 574-611 with the E2 binding site mutation of residues 579 to 584
[3]
  effect on CD3-δ level (stabilization): totally prevented this stabilization
[3]; listed as G2BD with amino acids 579-584 (of SEQ ID NO:2) mutated
  effect on CD3-δ level (stabilization): loss of this effect
[4]
  effect on TCR-α level (stabilization): did not

## CC(C)C[C@@H](C=O)NC(=O)[C@H](CC(C)C)NC(=O)[C@H](CC(C)C)NC(=O)OCc1ccccc1 [MG132, reference compound] (Cbz-Leu-Leu-Leu-aldehyde)
[3]; cells expressing Flag-tagged gp78 574-643, 2 or 4 μg Ube2G2 plasmid
  reversal of G2BD-induced CD3-δ stabilization by co-transfected Ube2G2: blocked the effect of transfected Ube2G2
[4]
  effect on TCR-α level (stabilization): prevented degradation of TCR-α
[5]
  effect on Mdm2 level (stabilization): led to Mdm2 stabilization
[6]
  effect of proteasome inhibitor on gp78 level: stabilized wild type gp78

## UBA-Cbl-b: GST fusion of the UBA of the RING finger E3 Cbl-b (NVDAKIAKLMGEGYAFEEVKRALEIAQNNVEVARSILREF; also: GST fusion partner, not in chain) [reference compound]
[7]
  binding of K48 tetra-ubiquitin: binds
